We go through 3 molecules from paper PMC10485159, “Biochemical functions and structure of Caenorhabditis elegans ZK177.8 protein: Aicardi–Goutières syndrome SAMHD1 dNTPase ortholog” (The Journal of Biological Chemistry, 2023).

Structures are written as SMILES.

In one experiment the target is T1, ZK177.8^41–565 (Caenorhabditis elegans, UniProt Q09374, H134R/D135N).
T1 construct: gene sahd-1; tetramer in asymmetric unit
T1 sequence (Q09374 41-565 H134R/D135N): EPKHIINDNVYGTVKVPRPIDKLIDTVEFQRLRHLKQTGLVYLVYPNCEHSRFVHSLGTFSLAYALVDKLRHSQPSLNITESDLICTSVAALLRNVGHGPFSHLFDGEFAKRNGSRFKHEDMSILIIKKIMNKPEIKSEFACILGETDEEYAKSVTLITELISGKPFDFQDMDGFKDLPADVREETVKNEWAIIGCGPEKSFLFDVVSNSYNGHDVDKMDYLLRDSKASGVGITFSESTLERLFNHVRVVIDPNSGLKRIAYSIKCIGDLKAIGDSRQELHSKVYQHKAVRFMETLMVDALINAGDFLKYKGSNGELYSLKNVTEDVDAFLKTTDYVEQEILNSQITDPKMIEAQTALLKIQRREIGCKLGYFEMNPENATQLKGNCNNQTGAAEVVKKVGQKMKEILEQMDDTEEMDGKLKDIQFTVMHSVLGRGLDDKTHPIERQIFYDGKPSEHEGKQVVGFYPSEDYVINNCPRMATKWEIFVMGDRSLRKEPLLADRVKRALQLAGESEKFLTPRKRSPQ
Description: X-ray crystallography, […] Å. The format is binding. The settings on record: crystals with 1 mM GTP / 10 mM dATP, pH 5.5.

The next experiment addresses T2, hSAMHD1 (Homo sapiens, UniProt Q9Y3Z3).
T2 construct: gene SAMHD1; purified human SAMHD1; construct not described; dGTP-induced tetramer
Description: formaldehyde cross-linking, dGTP-induced tetramerization, SDS-PAGE. The experiment is classed as binding. The settings on record: 2 mM dGTP, 10 μM protein, 50 mM KCl, 5 mM MgCl2, pH 7.5; allosteric activator; dGTPase activity also compared in supplement Fig. S3.

T2 sequence (Q9Y3Z3 whole entry): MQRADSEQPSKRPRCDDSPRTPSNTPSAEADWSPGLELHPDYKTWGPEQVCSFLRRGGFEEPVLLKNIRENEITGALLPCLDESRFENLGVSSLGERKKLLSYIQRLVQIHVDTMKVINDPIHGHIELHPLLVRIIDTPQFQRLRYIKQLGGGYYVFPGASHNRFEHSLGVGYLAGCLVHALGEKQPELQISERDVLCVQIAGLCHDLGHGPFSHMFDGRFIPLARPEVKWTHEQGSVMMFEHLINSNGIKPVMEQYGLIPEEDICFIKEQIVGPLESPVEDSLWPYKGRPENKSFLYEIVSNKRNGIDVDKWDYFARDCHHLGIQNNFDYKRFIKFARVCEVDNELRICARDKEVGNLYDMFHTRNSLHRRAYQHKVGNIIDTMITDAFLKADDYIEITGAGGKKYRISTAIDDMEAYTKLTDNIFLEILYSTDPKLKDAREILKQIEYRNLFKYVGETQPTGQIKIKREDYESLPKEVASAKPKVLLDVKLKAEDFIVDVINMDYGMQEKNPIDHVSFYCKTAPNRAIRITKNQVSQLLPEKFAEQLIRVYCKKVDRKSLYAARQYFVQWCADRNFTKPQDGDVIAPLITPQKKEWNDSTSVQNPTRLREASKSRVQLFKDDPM

As to `Nc1ncnc2c1ncn2[C@H]1C[C@H](O)[C@@H](COP(=O)(O)OP(=O)(O)OP(=O)(O)O)O1` [dATP], the “X-ray crystallography, 1.81 Å” value at ZK177.8^41–565 (catalytic site, unhydrolysed, no catalytic metal, also bound at allosteric site A2) is recorded as “within each monomer, a dATP molecule occupies its catalytic site”.

Regarding `Nc1nc2c(ncn2[C@H]2C[C@H](O)[C@@H](COP(=O)(O)OP(=O)(O)OP(=O)(O)O)O2)c(=O)[nH]1` [dGTP], the “formaldehyde cross-linking, dGTP-induced tetramerization, SDS-PAGE” value on hSAMHD1 is reported as “we detected the tetramer formation of hSAMHD1 protein only in the presence of dGTP”. Consider `Nc1nc2c(ncn2[C@@H]2O[C@H](COP(=O)(O)OP(=O)(O)OP(=O)(O)O)[C@@H](O)[C@H]2O)c(=O)[nH]1` [GTP], for which, on ZK177.8^41–565 (allosteric site A1 at tetramer interface), the “X-ray crystallography, 1.81 Å” value is “Two nucleotides, GTP and dATP, occupy the allosteric site located at the tetramer interface”.
